Measurements published in patent US20250206757A1 (GASHERBRUM BIO, INC., priority 2022, published 2025).
pEC50: −log10 of the molar value.

Biological target: GLP-1 Receptor (Homo sapiens, UniProt P43220)
Assay: GLP-1R agonist cAMP stimulation assay (HEK293/GLP1R/CRE-LUC cells, HTRF cAMP dynamic 2 kit)
Format: cell-based
Conditions: HEK293/CRE-Luc cell line stably expressing the GLP-1 Receptor; 30 min incubation at 37° C.
Description: Activation of GLP-1 receptor is known to stimulate cyclic AMP (cAMP) production in cells which indicates primary coupling to the Gas subunit of the G protein heterotrimeric complex.
To optimize functional activity directed toward Gas coupling, a HEK293/CRE-Luc cell line developed by HDB stably expressing the GLP-1 Receptor was used. 200× concentration of compound working solutions were prepared (Agilent Technologies Bravo) with 1/2 log serial dilution in 384-well Echo LDV plate (Labcyte, Cat #LP-0200). 50 nL/well 200× concentration of compound working solutions were moved to 384-well white low volume plate (Greiner, Cat #784075) using Labcyte ECHO550. 1×10^5 cells/mL HEK293/GLP1R/CRE-LUC (HD Biosciences) cell suspensions prepared with assay buffer [DPBS containing 0.5 mM IBMX (Sigma, Cat #15879) and 0.10% BSA (GENVIEW, Cat #FA016-100g)], 10 μL cell suspensions were added to each well of previous generated assay plate which already contains 50 nL compound at 200× concentration using ThermoFisher Multidrop Combi (1000 cells/well). Seal the plate and incubate at 37° C. with 5% CO2 for 30 min.
After incubation the cAMP assay signal was generated using cAMP dynamic 2 Kit (Cisbio). 5 μL cAMP-d2 working solution was added to each well, followed with 5 μL Anti-cAMP antibody-cryptate working solution added to each well using ThermoFisher Multidrop Combi. Incubate at room temperature for 1 hour protected from light. Read the fluorescence at 665 and 615 nm with Reader PerkinElmer EnVision.

Chain of GLP-1 Receptor (P43220 24-463): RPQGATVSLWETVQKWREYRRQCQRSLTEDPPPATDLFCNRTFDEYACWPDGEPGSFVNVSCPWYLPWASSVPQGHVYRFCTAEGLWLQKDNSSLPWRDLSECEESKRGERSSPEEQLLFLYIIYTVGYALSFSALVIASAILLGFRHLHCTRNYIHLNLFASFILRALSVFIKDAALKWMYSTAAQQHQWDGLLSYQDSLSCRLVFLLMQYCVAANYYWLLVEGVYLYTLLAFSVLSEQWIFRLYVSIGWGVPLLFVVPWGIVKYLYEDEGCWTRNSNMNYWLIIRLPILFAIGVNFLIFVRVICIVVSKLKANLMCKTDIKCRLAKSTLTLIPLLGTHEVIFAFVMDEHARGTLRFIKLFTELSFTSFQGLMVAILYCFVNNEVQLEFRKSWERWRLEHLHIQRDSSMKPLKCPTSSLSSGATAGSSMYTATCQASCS

Row | SMILES | pEC50
1 | CC(F)(F)c1nnc(-c2cc3nc(CN4CCc5cc(C(F)(F)F)c(OCc6ccc(Cl)cc6F)nc5C4)n(C[C@@H]4CCO4)c3cn2)[nH]1 [Compound 66, 2-[(4-chloro-2-fluorophenyl)methoxy]-7-({6-[5-(1,1-difluoroethyl)-4H-1,2,4-triazol-3-yl]-3-{[(2S)-oxetan-2-yl]methyl}-3H-imidazo[4,5-c]pyridin-2-yl}methyl)-3-(trifluoromethyl)-5,6,7,8-tetrahydro-1,7-naphthyridine] | > 9.00
2 | O=c1[nH]c(-c2ccc3nc(CN4CCc5ccc(OCc6ccc(Cl)cc6F)nc5C4)n(C[C@@H]4CCO4)c3c2)no1 [Compound 2, (S)-3-(2-((2-((4-chloro-2-fluorobenzyl)oxy)-5,8-dihydro-1,7-naphthyridin-7(6H)-yl)methyl)-1-(oxetan-2-ylmethyl)-1H-benzo[d]imidazol-6-yl)-1,2,4-oxadiazol-5(4H)-one] | 6.52 to 9.00
3 | O=c1[nH]c(-c2ccc3c(n2)nc(CN2CCc4cc(C(F)(F)F)c(OCc5ccc(Cl)cc5F)nc4C2)n3C[C@@H]2CCO2)no1 [Compound 49, 3-[2-({2-[(4-chloro-2-fluorophenyl)methoxy]-3-(trifluoromethyl)-5,6,7,8-tetrahydro-1,7-naphthyridin-7-yl}methyl)-1-{[(2S)-oxetan-2-yl]methyl}-11H-imidazo[4,5-b]pyridin-5-yl]-4,5-dihydro-1,2,4-oxadiazol-5-one] | > 9.00
4 | Fc1cc(Cl)ccc1COc1nc2c(cc1C(F)(F)F)CCN(Cc1nc3cc(-c4nnn[nH]4)ncc3n1C[C@@H]1CCO1)C2 [Compound 14, 2-[(4-chloro-2-fluorophenyl)methoxy]-7-[(3-{[(2S)-oxetan-2-yl]methyl}-6-(1H-1,2,3,4-tetrazol-5-yl)-3H-imidazo[4,5-c]pyridin-2-yl)methyl]-3-(trifluoromethyl)-5,6,7,8-tetrahydro-1,7-naphthyridine] | > 9.00
5 | Cc1nnc(-c2cnc3c(c2)nc(CN2CCc4cc(C(F)(F)F)c(OCc5ccc(Cl)cc5F)nc4C2)n3C[C@@H]2CCO2)[nH]1 [Compound 67, 2-[(4-chloro-2-fluorophenyl)methoxy]-7-{[6-(5-methyl-4H-1,2,4-triazol-3-yl)-3-{[(2S)-oxetan-2-yl]methyl}-3H-imidazo[4,5-b]pyridin-2-yl]methyl}-3-(trifluoromethyl)-5,6,7,8-tetrahydro-1,7-naphthyridine] | 6.52 to 9.00
6 | O=c1[nH]c(-c2ccc3c(nc(CN4CCc5cc(C(F)(F)F)c(OCc6ccc(Cl)cc6)nc5C4)n3C[C@@H]3CCO3)c2F)no1 [Compound 46, 3-[2-({2-[(4-chlorophenyl)methoxy]-3-(trifluoromethyl)-5,6,7,8-tetrahydro-1,7-naphthyridin-7-yl}methyl)-4-fluoro-1-{[(2S)-oxetan-2-yl]methyl}-1H-1,3-benzodiazol-5-yl]-4,5-dihydro-1,2,4-oxadiazol-5-one] | > 9.00
7 | O=c1[nH]c(-c2cc3nc(CN4CCc5cc(C(F)(F)F)c(OCc6ccc(Cl)cc6F)nc5C4)n(C[C@@H]4CCO4)c3cc2F)no1 [Compound 38, 3-[2-({2-[(4-chloro-2-fluorophenyl)methoxy]-3-(trifluoromethyl)-5,6,7,8-tetrahydro-1,7-naphthyridin-7-yl}methyl)-6-fluoro-1-{[(2S)-oxetan-2-yl]methyl}-1H-1,3-benzodiazol-5-yl]-4,5-dihydro-1,2,4-oxadiazol-5-one] | 6.52 to 9.00
8 | O=c1[nH]c(-c2cc3c(nc(CN4CCc5cc(C(F)(F)F)c(OCc6ccc(Cl)cc6F)nc5C4)n3C[C@@H]3CCO3)s2)no1 [Compound 58, 3-[2-({2-[(4-chloro-2-fluorophenyl)methoxy]-3-(trifluoromethyl)-5,6,7,8-tetrahydro-1,7-naphthyridin-7-yl}methyl)-1-{[(2S)-oxetan-2-yl]methyl}-1H-thieno[2,3-d]imidazol-5-yl]-4,5-dihydro-1,2,4-oxadiazol-5-one] | > 9.00
9 | O=c1[nH]c(-c2cnc3c(c2)nc(CN2CCc4cc(C(F)(F)F)c(OCc5ccc(Cl)cc5F)nc4C2)n3C[C@@H]2CCO2)no1 [Compound 29, 3-[2-({2-[(4-chloro-2-fluorophenyl)methoxy]-3-(trifluoromethyl)-5,6,7,8-tetrahydro-1,7-naphthyridin-7-yl}methyl)-3-{[(2S)-oxetan-2-yl]methyl}-3H-imidazo[4,5-b]pyridin-6-yl]-4,5-dihydro-1,2,4-oxadiazol-5-one] | > 9.00
10 | Cc1cc(-c2nnc(C(F)(F)F)[nH]2)nnc1CN1CCc2cc(C(F)(F)F)c(OCc3ccc(Cl)cc3F)nc2C1 [Compound 13, 2-[(4-chloro-2-fluorophenyl)methoxy]-7-({4-methyl-6-[5-(trifluoromethyl)-4H-1,2,4-triazol-3-yl]pyridazin-3-yl}methyl)-3-(trifluoromethyl)-5,6,7,8-tetrahydro-1,7-naphthyridine] | < 6.52
11 | O=c1[nH]c(-c2cnc3c(c2)nc(CN2CCc4ccc(OCc5ccc(Cl)cc5F)nc4C2)n3C[C@@H]2CCO2)no1 [Compound 1, (S)-3-(2-((2-((4-chloro-2-fluorobenzyl)oxy)-5,8-dihydro-1,7-naphthyridin-7(6H)-yl)methyl)-3-(oxetan-2-ylmethyl)-3H-imidazo[4,5-b]pyridin-6-yl)-1,2,4-oxadiazol-5(4H)-one] | 6.52 to 9.00

Further lines, results first:

Row | pEC50 | SMILES
12 | 6.52 to 9.00 | NC(=O)c1ccc2c(c1)nc(CN1CCc3cc(C(F)(F)F)c(OCc4ccc(Cl)cc4F)nc3C1)n2C[C@@H]1CCO1 [Compound 92, 2-({2-[(4-chloro-2-fluorophenyl)methoxy]-3-(trifluoromethyl)-5,6,7,8-tetrahydro-1,7-naphthyridin-7-yl}methyl)-1-{[(2S)-oxetan-2-yl]methyl}-1H-1,3-benzodiazole-5-carboxamide]
13 | < 6.52 | O=c1ccc(-c2cc3nc(CN4CCc5cc(C(F)(F)F)c(OCc6ccc(Cl)cc6F)nc5C4)n(C[C@@H]4CCO4)c3cn2)c[nH]1 [Compound 102, 5-[2-({2-[(4-chloro-2-fluorophenyl)methoxy]-3-(trifluoromethyl)-5,6,7,8-tetrahydro-1,7-naphthyridin-7-yl}methyl)-3-{[(2S)-oxetan-2-yl]methyl}-3H-imidazo[4,5-c]pyridin-6-yl]-1,2-dihydropyridin-2-one]
14 | 6.52 to 9.00 | CS(=O)(=O)c1nnc(-c2ccc3c(c2)nc(CN2CCc4cc(C(F)(F)F)c(OCc5ccc(Cl)cc5F)nc4C2)n3C[C@@H]2CCO2)[nH]1 [Compound 87, 2-[(4-chloro-2-fluorophenyl)methoxy]-7-{[5-(5-methanesulfonyl-4H-1,2,4-triazol-3-yl)-1-{[(2S)-oxetan-2-yl]methyl}-1H-1,3-benzodiazol-2-yl]methyl}-3-(trifluoromethyl)-5,6,7,8-tetrahydro-1,7-naphthyridine]
15 | 6.52 to 9.00 | Fc1cc(Cl)ccc1COc1nc2c(cc1C(F)(F)F)CCN(Cc1nc3cc(-c4nnc(C(F)(F)F)[nH]4)ncc3n1C[C@@H]1CCCO1)C2 [Compound 79, 2-[(4-chloro-2-fluorophenyl)methoxy]-7-[(3-{1[(2S)-oxolan-2-yl]methyl}-6-[5-(trifluoromethyl)-4H-1,2,4-triazol-3-yl]-3H-imidazo[4,5-c]pyridin-2-yl)methyl]-3-(trifluoromethyl)-5,6,7,8-tetrahydro-1,7-naphthyridine]
16 | > 9.00 | O=c1[nH]c(-c2ccc3c(nc(CN4CCc5cc(C(F)(F)F)c(NCc6ccc(Cl)cc6F)nc5C4)n3C[C@@H]3CCO3)c2F)no1 [Compound 106, 3-{2-[(2-{[(4-chloro-2-fluorophenyl)methyl]amino}-3-(trifluoromethyl)-5,6,7,8-tetrahydro-1,7-naphthyridin-7-yl)methyl]-4-fluoro-1-{[(2S)-oxetan-2-yl]methyl}-1H-1,3-benzodiazol-5-yl}-4,5-dihydro-1,2,4-oxadiazol-5-one]
17 | > 9.00 | Cc1nnc(-c2ccc3c(nc(CN4CCc5cc(C(F)(F)F)c(OCc6ccc(Cl)cc6)nc5C4)n3C[C@@H]3CCO3)c2F)[nH]1 [Compound 68, 2-[(4-chlorophenyl)methoxy]-7-{[4-fluoro-5-(5-methyl-4H-1,2,4-triazol-3-yl)-1-{[(2S)-oxetan-2-yl]methyl}-1H-1,3-benzodiazol-2-yl]methyl}-3-(trifluoromethyl)-5,6,7,8-tetrahydro-1,7-naphthyridine]
18 | > 9.00 | O=C(Nc1cc2nc(CN3CCc4cc(C(F)(F)F)c(OCc5ccc(Cl)cc5F)nc4C3)n(C[C@@H]3CCO3)c2cn1)c1cccnc1 [Compound 103, N-[2-({2-[(4-chloro-2-fluorophenyl)methoxy]-3-(trifluoromethyl)-5,6,7,8-tetrahydro-1,7-naphthyridin-7-yl}methyl)-3-{[(2S)-oxetan-2-yl]methyl}-3H-imidazo[4,5-c]pyridin-6-yl]pyridine-3-carboxamide]
19 | > 9.00 | FC(F)(F)c1nnc(-c2cc3nc(CN4CCc5cc(C(F)(F)F)c(OCc6ccc(Cl)cn6)nc5C4)n(C[C@@H]4CCO4)c3cn2)[nH]1 [Compound 74, 2-[(5-chloropyridin-2-yl)methoxy]-7-[(3-{[(2S)-oxetan-2-yl]methyl}-6-[5-(trifluoromethyl)-4H-1,2,4-triazol-3-yl]-3H-imidazo[4,5-c]pyridin-2-yl)methyl]-3-(trifluoromethyl)-5,6,7,8-tetrahydro-1,7-naphthyridine]
